Data as given in ChEMBL document CHEMBL4371004, “A-C Estrogens as Potent and Selective Estrogen Receptor-Beta Agonists (SERBAs) to Enhance Memory Consolidation under Low-Estrogen Conditions” (J Med Chem, 2018).
Active and inactive are the calls of the source. The calls are words filed in the database; no cut-off is given here.

What was measured:
Mus musculus [1] = test: Memory enhancement effect in C57BL/6 mouse assessed as time spent with novel object at 0.5 mg/kg, ip by novel object recognition test; format: functional
[2] = target: T1, Progesterone receptor (Homo sapiens) (UniProt P06401); test: Agonist activity at GAL4 DNA binding domain fused progesterone receptor ligand binding domain (unknown origin) at 0.25 to 25 uM by FRET-based assay
T1 sequence (whole entry): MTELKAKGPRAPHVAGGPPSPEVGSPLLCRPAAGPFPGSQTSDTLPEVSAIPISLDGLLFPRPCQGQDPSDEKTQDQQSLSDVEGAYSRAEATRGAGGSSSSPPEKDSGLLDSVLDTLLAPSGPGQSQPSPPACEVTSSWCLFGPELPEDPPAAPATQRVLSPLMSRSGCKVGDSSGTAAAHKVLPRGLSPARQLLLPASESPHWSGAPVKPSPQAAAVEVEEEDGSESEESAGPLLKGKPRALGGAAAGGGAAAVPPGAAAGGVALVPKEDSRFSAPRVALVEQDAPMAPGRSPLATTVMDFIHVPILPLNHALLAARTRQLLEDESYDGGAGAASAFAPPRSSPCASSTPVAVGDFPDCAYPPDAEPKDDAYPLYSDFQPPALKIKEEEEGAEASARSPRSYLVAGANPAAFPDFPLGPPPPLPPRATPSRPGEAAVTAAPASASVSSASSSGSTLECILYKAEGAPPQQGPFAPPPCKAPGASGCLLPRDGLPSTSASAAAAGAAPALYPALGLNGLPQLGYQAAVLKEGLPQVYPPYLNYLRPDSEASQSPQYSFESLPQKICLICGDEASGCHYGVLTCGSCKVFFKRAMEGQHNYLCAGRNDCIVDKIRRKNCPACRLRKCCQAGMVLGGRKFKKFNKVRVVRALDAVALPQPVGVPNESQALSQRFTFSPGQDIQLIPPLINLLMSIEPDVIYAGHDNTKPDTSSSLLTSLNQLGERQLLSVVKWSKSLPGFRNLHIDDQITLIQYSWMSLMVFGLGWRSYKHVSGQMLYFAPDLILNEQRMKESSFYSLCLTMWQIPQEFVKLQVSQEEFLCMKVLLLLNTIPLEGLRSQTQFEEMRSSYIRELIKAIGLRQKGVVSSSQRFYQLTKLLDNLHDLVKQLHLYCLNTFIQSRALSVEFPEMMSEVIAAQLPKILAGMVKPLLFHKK

Mus musculus [3] = test: Memory enhancement effect in C57BL/6 mouse assessed as time spent with novel object at 100 pg administered as dorsal hippocampal infusion by novel object recognition test; format: functional
[4] = target: T2, Peroxisome proliferator-activated receptor delta (Homo sapiens) (UniProt Q03181); test: Agonist activity at GAL4 DNA binding domain fused PPARdelta (unknown origin) at 0.25 to 25 uM by FRET-based assay
T2 sequence (whole entry): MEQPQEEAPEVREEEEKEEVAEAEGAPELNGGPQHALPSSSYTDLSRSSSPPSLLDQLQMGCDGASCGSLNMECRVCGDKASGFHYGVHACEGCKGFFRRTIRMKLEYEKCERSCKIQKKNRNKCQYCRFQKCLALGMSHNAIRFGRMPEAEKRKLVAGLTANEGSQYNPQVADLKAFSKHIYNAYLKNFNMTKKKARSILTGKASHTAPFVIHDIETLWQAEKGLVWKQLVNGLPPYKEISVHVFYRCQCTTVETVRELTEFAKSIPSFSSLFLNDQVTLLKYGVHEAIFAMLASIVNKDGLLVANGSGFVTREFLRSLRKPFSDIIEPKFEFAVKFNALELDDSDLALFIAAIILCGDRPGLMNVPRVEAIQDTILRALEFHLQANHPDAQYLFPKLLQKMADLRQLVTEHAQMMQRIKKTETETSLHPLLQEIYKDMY

[5] = target: T3, Glucocorticoid receptor (Homo sapiens) (UniProt P04150); test: Agonist activity at GAL4 DNA binding domain fused glucocorticoid receptor ligand binding domain (unknown origin) at 0.25 to 25 uM by FRET-based assay
T3 sequence (whole entry): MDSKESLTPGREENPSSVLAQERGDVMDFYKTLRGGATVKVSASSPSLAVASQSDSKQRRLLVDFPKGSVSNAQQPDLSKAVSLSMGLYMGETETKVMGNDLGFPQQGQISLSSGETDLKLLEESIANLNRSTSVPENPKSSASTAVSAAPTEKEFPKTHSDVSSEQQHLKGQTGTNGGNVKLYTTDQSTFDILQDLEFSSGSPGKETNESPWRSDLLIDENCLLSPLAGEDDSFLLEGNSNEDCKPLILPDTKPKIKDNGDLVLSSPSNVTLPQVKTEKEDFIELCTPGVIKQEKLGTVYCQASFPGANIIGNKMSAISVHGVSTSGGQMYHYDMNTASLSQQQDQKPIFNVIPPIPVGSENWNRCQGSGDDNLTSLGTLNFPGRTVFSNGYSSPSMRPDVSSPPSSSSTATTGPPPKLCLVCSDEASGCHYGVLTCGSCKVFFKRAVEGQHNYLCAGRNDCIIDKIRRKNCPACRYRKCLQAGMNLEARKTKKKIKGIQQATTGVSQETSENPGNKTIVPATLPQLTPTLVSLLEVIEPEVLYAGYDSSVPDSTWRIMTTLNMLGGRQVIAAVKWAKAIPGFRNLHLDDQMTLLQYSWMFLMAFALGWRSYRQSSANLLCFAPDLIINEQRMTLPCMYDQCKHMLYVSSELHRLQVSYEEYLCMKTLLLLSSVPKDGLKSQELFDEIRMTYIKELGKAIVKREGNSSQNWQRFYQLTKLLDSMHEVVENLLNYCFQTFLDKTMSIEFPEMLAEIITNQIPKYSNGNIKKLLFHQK

Mus musculus [6] = test: Memory enhancement effect in C57BL/6 mouse assessed as time spent with moved object at 5 mg/kg, po administered via gavage by object recognition test; format: functional
Estrogen receptor = target: T4, Estrogen receptor (Homo sapiens, UniProt P03372)
T4 sequence (P03372 whole entry): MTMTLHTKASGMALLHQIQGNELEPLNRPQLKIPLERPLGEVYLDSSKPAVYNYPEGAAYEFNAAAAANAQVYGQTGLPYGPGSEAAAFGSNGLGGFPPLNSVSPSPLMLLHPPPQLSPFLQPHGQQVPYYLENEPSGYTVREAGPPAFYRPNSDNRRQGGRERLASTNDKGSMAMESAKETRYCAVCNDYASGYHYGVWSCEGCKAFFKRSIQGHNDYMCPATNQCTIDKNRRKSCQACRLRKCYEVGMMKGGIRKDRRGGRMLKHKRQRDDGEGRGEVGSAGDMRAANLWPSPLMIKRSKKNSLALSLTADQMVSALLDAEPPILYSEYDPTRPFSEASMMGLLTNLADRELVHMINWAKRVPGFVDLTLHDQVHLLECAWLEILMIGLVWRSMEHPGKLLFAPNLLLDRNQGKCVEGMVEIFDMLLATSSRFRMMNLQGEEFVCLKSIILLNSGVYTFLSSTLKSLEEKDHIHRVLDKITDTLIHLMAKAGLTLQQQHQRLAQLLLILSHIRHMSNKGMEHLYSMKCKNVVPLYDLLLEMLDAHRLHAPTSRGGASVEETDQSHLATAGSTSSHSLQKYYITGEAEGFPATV

OC[C@H]1CC[C@H](c2ccc(O)cc2)CC1
Time (Mus musculus [1]): 4.17 s
Activity [2]: inactive
Time (Mus musculus [3]): 3.16 s
Activity [4]: inactive
Activity [5]: inactive
Time (Mus musculus [6]): 5.06 s
EC50 (Estrogen receptor): 289 nM
